# Data published in publication PMC3479139, “Diverse Small Molecule Inhibitors of Human Apurinic/Apyrimidinic Endonuclease APE1 Identified from a Screen of a Large Public Collection” (PLoS ONE, 2012).
# Legend:
# [1] = biological target: T1, APE1 (Homo sapiens, UniProt P27695); test: Fluorogenic kinetic qHTS APE1 incision assay (primary screen and retest of cherrypicked samples); type: biochemical;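 also: purified APE1 cleaving a fluorophore/dark-quencher labelled 17-mer duplex DNA bearing a tetrahydrofuran AP site, fluorescence rise followed kinetically over the first 2 min, inhibition normalized to controls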
# T1 construct: made in house
# T1 sequence (P27695 whole entry): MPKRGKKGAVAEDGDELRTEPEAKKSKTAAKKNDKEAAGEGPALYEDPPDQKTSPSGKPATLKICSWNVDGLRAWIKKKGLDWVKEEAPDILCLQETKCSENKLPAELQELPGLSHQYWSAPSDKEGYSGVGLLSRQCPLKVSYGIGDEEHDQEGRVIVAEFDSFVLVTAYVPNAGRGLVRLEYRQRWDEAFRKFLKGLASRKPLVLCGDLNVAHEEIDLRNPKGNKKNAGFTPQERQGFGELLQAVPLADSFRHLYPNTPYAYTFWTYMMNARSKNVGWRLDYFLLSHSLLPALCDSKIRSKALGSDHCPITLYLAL
# Description: All screening operations were performed on a fully integrated robotic system (Kalypsys, San Diego, CA) [28] with library plates screened proceeding from the lowest to the highest concentration to minimize compound carryover [26]. Vehicle-only plates, with DMSO being pin-transferred to the entire column 5–48 compound area, were included regularly throughout the screen in order to record any systematic shifts in assay signal. During the screen, reagent bottles were kept at 4°C and all liquid lines were covered with aluminum foil to minimize degradation.
# Screening data were corrected and normalized, and concentration–effect relationships was derived using in-house developed algorithms [25].
# To screen for inhibitors of APE1 incision activity, we employed a purified-enzyme biochemical assay with a model substrate featuring a red-shifted fluorescent reporter in combination with a dark non-emitting quencher. These moieties were incorporated as end labels onto a 17-mer double-stranded DNA fragment containing a centrally-located tetrahydrofuran AP site sugar mimetic, which serves as the APE1 cleavage site. Upon APE1-catalyzed strand scission immediately 5′ to the AP site analog, the shortened oligodeoxynucleotide carrying the fluorescent reporter spontaneously dissociates from the rest of the substrate, leading to an increase in fluorescence due to its spatial separation from the dark quencher (Figure 1A).
# Using a high-speed whole-plate fluorescence imager, the assay data for the entire screen was conducted in kinetic mode, with the APE1 incision reaction being monitored over the initial linear time frame of 2 min (Figure 1B). Thus, any inhibition associated with each sample was computed from the alteration in fluorescence intensity over the time-course measurement period, after normalization against the appropriate controls (Figure 1B, inset).
# [2] = biological target: T1, APE1; test: Gel-based APE1 incision assay with fluorescence (TAMRA) detection; type: biochemical
# Description: To test the compounds’ inhibitory activity after the primary screen, two assays designed to monitor the cleavage of substrate to product through electrophoretic separation were utilized. The radiotracer incision assay, utilizing a ^32P-labeled substrate, was performed essentially as described [21], [31], [32]. Incision reactions utilizing ^32P-labeled substrate were carried out for 5 min at 37°C. After the addition of an equal volume of stop buffer (0.05% bromophenol blue and xylene cyanol, 20 mM EDTA, 95% formamide), the substrate and product were separated on a standard polyacrylamide denaturing gel and quantified by PhosphorImager analysis [32]. […] APE1 cleavage of the substrate results in a 18-mer TAMRA-labeled fragment which was separated by a non-denaturing polyacrylamide gel electrophoresis and quantitated in a Gel Doc XR imaging system, BioRad (Hercules, CA). The advantage of this assay is that it can be used in a relatively high throughput mode with the inhibitors tested at a range of concentrations (0.17 µM to 125 µM was used here). APE1 (0.15 nM) was added to a reaction mixture of 20 µL containing assay buffer (40 mM HEPES pH 7.5, 50 mM NaCl, 1 mM MgCl2 and 2 mM DTT), and labeled ds DNA substrate (final 75 nM). The mixture was incubated at RT for 15 min, and the reaction was stopped by the addition 20 µL of 2X dye stop solution (10% glycerol, 20 mM EDTA and bromophenol blue). Then 10 µL of the mixture was resolved on 20% polyacrylamide gel in 1X Tris-borate EDTA running buffer at 250 V for 40 min.
# To eliminate false positive hits, all 595 confirmed molecules were tested for their ability to inhibit APE1 incision activity using biochemical assays that involve electrophoretic separation of the substrate and cleavage product.
# [3] = biological target: T1, APE1; test: Fluorescence polarization (FP) displacement assay of APE1 binding to AP-DNA probe; settings: read-out: FP IC50;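 also: TAMRA 5′-labeled duplex DNA with THF abasic site (5 nM) and APE1 (20 nM), Mg2+-free buffer, 15 min at room temperature, inhibition seen as lowered polarization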
# [4] = biological target: double-stranded 17-mer DNA fragment; test: ThO (Thiazole Orange) DNA displacement assay; type: binding; settings: read-out: ThO-DNA binding IC50;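 also: miniaturized displacement of the intercalating dye from unlabeled duplex DNA, used to flag nonspecific DNA binders, chiefly intercalators, groove binders may be missed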
# Excerpt: The double-stranded 17-mer DNA fragment used in the ThO DNA binding assay was of the same sequence as the fluorogenic HTS substrate but carried no dye labels.
# (§1) In order to screen out nonselective compounds, such as non-specific DNA binders and inhibitors of related enzymes, we used a miniaturized ThO DNA displacement assay and a counterscreen against the bacterial endonuclease E. coli Endo IV, respectively, following the previously published protocols [21].
# To detect screening hits that inhibit APE1 activity through non-specific DNA interactions, we employed a previously established miniaturized ThO dye displacement assay [21]. […] We note that the ThO assay reports primarily on DNA binders acting through intercalation, while potentially missing other types of DNA binders, such as those acting through the minor groove.
# [5] = biological target: T2, E. coli Endo IV (Escherichia coli, UniProt P0A6C1); test: E. coli Endo IV profiling counterscreen; type: biochemical; settings: read-out: EndoIV IC50;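 also: selectivity counterscreen of candidate APE1 inhibitors against the bacterial endonuclease Endo IV, run in the same assay format as the primary APE1 high-throughput screen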
# T2 construct: made in house
# Excerpt: as §1
# To probe the selectivity of the candidate APE1 inhibitors, we tested them against E. coli EndoIV [36], employing the same assay as used in the HTS.
# [6] = initial quantitative high-throughput screen, read-out: APE1 qHTS IC50
# [7] = retest of cherrypicked sample, read-out: APE1 Retest IC50
# [8] = estimated IC50, fluorophore detection, entries 113-223, read-out: F-PAGE Assay IC50
# [9] = entries 113-223: fluorophore detection, estimated IC50, read-out: Gel-based electrophoretic separation assay with fluorophore detection, estimated IC50 (column headed Radiotracer Assay (%Activity))
Structure (SMILES),"IC50 [1, 6]","IC50 [1, 7]","IC50 [2, 8]",IC50 [3],IC50 [4],IC50 [5],"IC50 [2, 9]"
CCOC(=O)C1CCCN(C(=O)c2cc(-c3ccco3)nc3ccccc23)C1 (centres unmarked) [MLS002245402],8.4 µM,18.2 µM,4 µM,> 57 µM,32.4 µM,> 57 µM,
CC1=C(C(=O)OC(C)C)C(c2ccc(Cl)cc2)n2c(s/c(=C\c3ccc(OCC(=O)O)cc3)c2=O)=N1 (centres unmarked) [MLS001178474],6.7 µM,5.1 µM,1.4 µM,> 57 µM,10.2 µM,> 57 µM,
Nc1c(/C=C2/C=CC(=O)C(O)=C2)c(=O)nc2sc(CC(=O)N3CCCC3)nn12 [MLS001139292],10.6 µM,6.5 µM,1 µM,> 57 µM,> 57 µM,> 57 µM,
CCNc1nc(NCC)n2c(SCC(=O)Nc3cccc(F)c3)nnc2n1 [MLS001234358],11.9 µM,11.5 µM,5 µM,18.2 µM,> 57 µM,36.3 µM,11.2 µM
O=C(CSc1nc2sc3c(c2c(=O)n1-c1ccccc1)CCCC3)NN=Cc1ccccc1C(=O)O [MLS001147809],10.6 µM,14.5 µM,,> 57 µM,> 57 µM,> 57 µM,12.6 µM
CC(=O)c1cccc(OCC(=O)N(C)CC(=O)NCc2ccco2)c1 [MLS002251323],9.5 µM,9.1 µM,4 µM,> 57 µM,> 57 µM,> 57 µM,
COc1ccc(NC(=O)c2cc(-c3ccco3)nc3ccccc23)cn1 [MLS002164354],11.9 µM,14.5 µM,7.1 µM,36.3 µM,> 57 µM,22.9 µM,
CCCCN(C(=O)c1cccc(-n2cccc2)c1)c1c(N)n(Cc2ccccc2)c(=O)[nH]c1=O [MLS001159279],2.7 µM,12.9 µM,2.8 µM,> 57 µM,> 57 µM,> 57 µM,
CCOC(=O)c1ccc2[nH]c(-c3ccc(S(=O)(=O)F)cc3)cc(=O)c2c1 [MLS000737558],18.9 µM,14.5 µM,,20.4 µM,> 57 µM,36.3 µM,28.2 µM
O=C1C=C(c2ccc3cc[nH]c3c2)C[C@@H](c2ccc3c(c2)OCO3)C1 [MLS001060910],11.9 µM,18.2 µM,3.2 µM,> 57 µM,> 57 µM,> 57 µM,
Cc1cccc(NC(=O)CNC(=O)c2cccc(-n3cccc3)c2)c1C [MLS001141795],1.9 µM,6.5 µM,1.1 µM,> 57 µM,> 57 µM,> 57 µM,
CCOc1ccc(NC(=O)CN(C)C(=O)C2COc3ccccc3O2)cc1OCC (centres unmarked) [MLS002248300],21.2 µM,32.4 µM,,> 57 µM,> 57 µM,> 57 µM,20 µM
NC(=O)c1ccc(NC(=O)COC(=O)c2cc3c(s2)CCC3)cc1 [MLS002251079],3 µM,12.9 µM,3.5 µM,18.2 µM,> 57 µM,> 57 µM,
O=C(O)C1CCCCC1C(=O)Nc1cccc(Br)c1 (centres unmarked) [MLS002152987],0.5 µM,5.1 µM,0.9 µM,> 57 µM,> 57 µM,> 57 µM,
Cc1ccc(C)c(NC(=O)CN(C)C(=O)c2cccc(-n3cccc3)c2)c1 [MLS001161412],3 µM,5.8 µM,2.8 µM,12.9 µM,> 57 µM,16.2 µM,
COc1ccc(NC(=O)CN(C)C(=O)c2cc3c(s2)CCC3)cc1 [MLS001081306],1.9 µM,7.3 µM,0.1 µM,> 57 µM,40.8 µM,> 57 µM,
O=C(c1cccc(-n2cccc2)c1)N1CCN(S(=O)(=O)c2ccccc2)CC1 [MLS001139594],1.5 µM,11.5 µM,2.5 µM,> 57 µM,> 57 µM,> 57 µM,
COCCN(CC(=O)Nc1cccc(C)c1C)C(=O)c1cc2c(s1)CCC2 [MLS002170765],15 µM,18.2 µM,,> 57 µM,> 57 µM,> 57 µM,17.8 µM
O=C(COC(=O)c1ccccc1)Nc1ncc([N+](=O)[O-])s1 [MLS002171184],3.4 µM,11.5 µM,1.6 µM,> 57 µM,32.4 µM,> 57 µM,

Structure (SMILES),"IC50 [1, 6]","IC50 [1, 7]","IC50 [2, 8]",IC50 [3],IC50 [4],IC50 [5],"IC50 [2, 9]"
COc1ccc(S(=O)(=O)N2CCOCC2)cc1NC(=O)c1cccc(-n2cccc2)c1 [MLS001161521],3.8 µM,7.3 µM,4.5 µM,> 57 µM,> 57 µM,> 57 µM,
Cc1sc2ncnc(SCC(=O)Nc3ncccc3O)c2c1C [MLS002181609],29.9 µM,10.2 µM,,20.4 µM,> 57 µM,> 57 µM,14.1 µM
O=C(NC1CC1)C1CCN(S(=O)(=O)c2cc([N+](=O)[O-])ccc2Cl)CC1 [MLS002162311],10.6 µM,32.4 µM,8.9 µM,> 57 µM,36.3 µM,> 57 µM,
O=C(C[C@@H]1C/C=C\C[C@H](Cc2ccc(F)cc2)C(=O)OC[C@@H](Cc2c[nH]c3ccccc23)NC1=O)NCCO [MLS002320105],11.9 µM,,5.6 µM,> 57 µM,> 57 µM,> 57 µM,
CCCN(C(=O)c1cccc(-n2cccc2)c1)c1c(N)n(Cc2ccccc2)c(=O)[nH]c1=O [MLS001098232],6.7 µM,6.5 µM,2.8 µM,20.4 µM,> 57 µM,> 57 µM,
O=C(CSc1nnc(Nc2ccccc2F)s1)NC(=O)CN1CCCC1=O [MLS002163634],10.6 µM,10.2 µM,8.9 µM,18.2 µM,> 57 µM,> 57 µM,
COC(=O)c1ccn(CC(=O)NC2CCCCC2)n1 [MLS001030262],29.9 µM,12.9 µM,5.6 µM,> 57 µM,> 57 µM,> 57 µM,
CC(=O)c1ccccc1NS(=O)(=O)c1cccc2nsnc12 [MLS001008046],5.3 µM,8.1 µM,5.6 µM,28.9 µM,> 57 µM,> 57 µM,
O=C(CSc1nnc(CNC(=O)c2c(F)cccc2F)o1)NCc1ccco1 [MLS001235900],10.6 µM,45.7 µM,,18.2 µM,> 57 µM,> 57 µM,12.6 µM
COc1cccc(NC(=O)CN(C)C(=O)c2cc3c(s2)CCC3)c1 [MLS001142077],10.6 µM,32.4 µM,,> 57 µM,20.4 µM,> 57 µM,10 µM
CC(C)(C)OC(=O)C[C@@H]1C/C=C\C[C@@H](CC(=O)NCCO)C(=O)N[C@H](Cc2c[nH]c3ccccc23)COC1=O [MLS002320206],15 µM,16.2 µM,,> 57 µM,> 57 µM,> 57 µM,20 µM
CCOC(=O)C1=C(C)N=c2s/c(=C\c3ccc(OCC(=O)O)cc3)c(=O)n2C1c1ccc(Cl)cc1 (centres unmarked) [MLS001178472],10.6 µM,14.5 µM,,> 57 µM,> 57 µM,> 57 µM,11.2 µM
COc1cccc(NC(=O)CN(C)C(=O)c2cc(-c3ccco3)nc3ccccc23)c1 [MLS001156783],10.6 µM,10.2 µM,7.9 µM,> 57 µM,> 57 µM,> 57 µM,
COc1ccccc1N(CC(=O)NCc1ccco1)S(=O)(=O)c1ccc(C)cc1 [MLS001219746],21.2 µM,16.2 µM,8.9 µM,> 57 µM,> 57 µM,> 57 µM,
Cc1coc2c(C)c3oc(=O)c(CCC(=O)N[C@@H](C)C(=O)N[C@@H](Cc4ccccc4)C(=O)O)c(C)c3cc12 [MLS001140219],13.4 µM,18.2 µM,,> 57 µM,> 57 µM,> 57 µM,20 µM
CC(=O)Nc1ccc(S(=O)(=O)NCCC(=O)OCC(=O)N2CCN(C(=O)c3ccco3)CC2)cc1 [MLS001078987],16.8 µM,,,20.4 µM,> 57 µM,> 57 µM,22.4 µM
O=C(C[C@@H]1C/C=C\C[C@H](NC(=O)OCC2c3ccccc3-c3ccccc32)C(=O)OC[C@@H]2CCCN2C1=O)NCCO [MLS002320455],9.5 µM,10.2 µM,,> 57 µM,> 57 µM,> 57 µM,22.4 µM
CSCC[C@H](NS(=O)(=O)c1ccc(C(C)=O)cc1)c1nnc2ccccn12 [MLS001158971],21.2 µM,9.1 µM,,> 57 µM,> 57 µM,> 57 µM,22.4 µM
CC(C)(C)OC(=O)C[C@@H]1C/C=C\C[C@H](CC(=O)NCCO)C(=O)N2CCC[C@H]2COC1=O [MLS002320191],6.7 µM,20.4 µM,7.9 µM,> 57 µM,> 57 µM,> 57 µM,
